In one series the test system is spring wheat (TRZAS). In words: Postemergence greenhouse trial, % visual injury on spring wheat. The series is classed as in vivo, Triticum aestivum. The following applies: TRZAS. An outline of the steps:
(§1)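 Injury was scored visually (0 = none, 100 = complete kill) 20–22 d after track-sprayer application at 187 L/ha, compared with solvent-sprayed controls. Test plants at the 2–3 true leaf stage; herbicide (g ae/ha) plus cloquintocet-mexyl safener (g ai/ha) in crop-oil-containing spray; expected mixture response by Colby.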

The test system of another series is kochia (KCHSC). In words: Postemergence greenhouse trial, % visual injury on kochia. The series is classed as in vivo, Kochia scoparia. The following applies: KCHSC; for pest or weed control at 4.38 g/ha / pest or weed control at 8.75 g/ha / pest or weed control at 17.5 g/ha / pest or weed control at 35 g/ha / pest or weed control at 70 g/ha / pest or weed control at 4.375 g/ha: Bassia scoparia, post-emergence, read-out: % visual injury, Ob; for pest or weed control at 4.38 g/ha: compound 4.380 g/ha. An outline of the steps: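 Herbicide rates g ae/ha, safener (cloquintocet-mexyl) rates g ai/ha; spray carrier 1.5% v/v crop oil concentrate, 187 L/ha, 2nd–3rd leaf stage. Rating: visual % injury at 20-22 d.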

The next series deals with Russian thistle (SASKR). In words: Postemergence greenhouse trial, % visual injury on Russian thistle. The series is classed as in vivo, Salsola kali. The following applies: SASKR.
The next series relates to winter rape (BRSNW). In words: Postemergence greenhouse trial, % visual injury on winter rape. The following applies: Brassica napus, post-emergence, BRSNW, read-out: % visual injury, Ob. The series is classed as in vivo, Brassica napus. The gist of the method:
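Visual injury, 0 (none) to 100 (complete kill), rated 20-22 d after overhead track-sprayer application at 187 L/ha; Colby's equation gave expected mixture responses. Herbicide (g ae/ha) and cloquintocet-mexyl safener (g ai/ha) diluted in aqueous 1.5% v/v Agri-dex, applied to weeds at 2–3 true leaves.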

The next series deals with pigweed (AMARE). The experiment in a line: Postemergence greenhouse trial, % visual injury on pigweed. The series is classed as in vivo, Amaranthus retroflexus. The following applies: Amaranthus retroflexus, post-emergence, AMARE, applied alone, read-out: % visual injury, Ob. An outline of the steps: as §1
The mark [1] stands for this setting: compound 8 4.380 + CQC-m 0 g/ha.

The structures appear in SMILES notation. Read-outs that look alike come from different tables or passages of the source.

As to `COC(=O)c1nc(-c2ccc3cc[nH]c3c2F)c(F)c(N)c1Cl` [compound 8], the “% visual injury, observed (Ob)” value in the series on spring wheat (TRZAS) (setting [1]) is listed as 7%; with spring wheat (TRZAS) (compound 8 8.75 + CQC-m 0 g/ha), 11%; in the series on spring wheat (TRZAS) (compound 8 17.5 + CQC-m 0 g/ha), 35%; with spring wheat (TRZAS) (compound 8 35 + CQC-m 0 g/ha) it was 48%; with spring wheat (TRZAS) (compound 8 70 + CQC-m 0 g/ha) it was 60%; with kochia (KCHSC) (setting [1]), 69%. The “% visual injury, observed (Ob)” value came to 77% with kochia (KCHSC) (compound 8 8.75 + CQC-m 0 g/ha); 81% in the series on kochia (KCHSC) (compound 8 17.5 + CQC-m 0 g/ha); 95% in the series with kochia (KCHSC) (compound 8 35 + CQC-m 0 g/ha); 95% in the series with kochia (KCHSC) (compound 8 70 + CQC-m 0 g/ha); 61% with Russian thistle (SASKR) (setting [1]); 69% in the series with Russian thistle (SASKR) (compound 8 8.75 + CQC-m 0 g/ha). Besides, the “% visual injury, observed (Ob)” value in the series on Russian thistle (SASKR) (compound 8 17.5 + CQC-m 0 g/ha) is 83%; in the series on Russian thistle (SASKR) (compound 8 35 + CQC-m 0 g/ha), 85%; in the series with Russian thistle (SASKR) (compound 8 70 + CQC-m 0 g/ha), 90%.

Turning to `CO/C=N/c1c(F)c(-c2ccc3cc[nH]c3c2F)nc(C(=O)OC)c1Cl` [compound 10], the “% visual injury, Ob” value was 10% in the series on spring wheat (TRZAS) (compound 4.380 g/ha, CQC-m 0); 25% in the series with spring wheat (TRZAS) (compound 8.75 g/ha, CQC-m 0); 40% with spring wheat (TRZAS) (compound 17.5 g/ha, CQC-m 0); 60% with spring wheat (TRZAS) (compound 35 g/ha, CQC-m 0); 70% in the series on spring wheat (TRZAS) (compound 70 g/ha, CQC-m 0); 70% in the series on Russian thistle (SASKR) (compound 4.380 g/ha, CQC-m 0). The “% visual injury, Ob” value stood at 80% in the series with Russian thistle (SASKR) (compound 8.75 g/ha, CQC-m 0); 87% in the series with Russian thistle (SASKR) (compound 17.5 g/ha, CQC-m 0); 90% in the series with Russian thistle (SASKR) (compound 35 g/ha, CQC-m 0); 93% in the series on Russian thistle (SASKR) (compound 70 g/ha, CQC-m 0). Moreover, in the series with winter rape (BRSNW) (compound 4.380 g/ha, CQC-m 0), the plant injury at 4.38 g/ha was found to be 85%. The plant injury at 8.75 g/ha with winter rape (BRSNW) (compound 8.75 g/ha, CQC-m 0) was determined as 95%. For the same compound, in the series on winter rape (BRSNW) (compound 17.5 g/ha, CQC-m 0), the plant injury at 17.5 g/ha worked out at 100%. Further, in the series with winter rape (BRSNW) (compound 35 g/ha, CQC-m 0), the plant injury at 35 g/ha is 100%. The plant injury at 70 g/ha in the series with winter rape (BRSNW) (compound 70 g/ha, CQC-m 0) was found to be 100%. Besides, the pest or weed control at 4.38 g/ha in the series with kochia (KCHSC) (CQC-m 0) was found to be 80%. Further, the pest or weed control at 8.75 g/ha in the series on kochia (KCHSC) (compound 8.75 g/ha, CQC-m 0) is 80%. In addition, the pest or weed control at 17.5 g/ha with kochia (KCHSC) (compound 17.5 g/ha, CQC-m 0) was determined as 100%. Moreover, the pest or weed control at 35 g/ha in the series with kochia (KCHSC) (compound 35 g/ha, CQC-m 0) was found to be 100%. Further, the pest or weed control at 70 g/ha in the series on kochia (KCHSC) (compound 70 g/ha, CQC-m 0) was determined as 100%.

With `COC(=O)c1nc(-c2ccc3cc[nH]c3c2F)c(F)c(N)c1OC` [compound 12], the “% visual injury, Ob” value came to 15% with spring wheat (TRZAS) (compound 4.380 g/ha, CQC-m 0); 27% in the series with spring wheat (TRZAS) (compound 8.75 g/ha, CQC-m 0); 42% with spring wheat (TRZAS) (compound 17.5 g/ha, CQC-m 0); 53% with spring wheat (TRZAS) (compound 35 g/ha, CQC-m 0); 70% in the series on spring wheat (TRZAS) (compound 70 g/ha, CQC-m 0); 10% in the series on Russian thistle (SASKR) (compound 4.380 g/ha, CQC-m 0). Also, the “% visual injury, Ob” value is 33% in the series on Russian thistle (SASKR) (compound 8.75 g/ha, CQC-m 0); 52% with Russian thistle (SASKR) (compound 17.5 g/ha, CQC-m 0); 72% in the series with Russian thistle (SASKR) (compound 35 g/ha, CQC-m 0); 88% in the series with Russian thistle (SASKR) (compound 70 g/ha, CQC-m 0). In the series on kochia (KCHSC) (CQC-m 0), the pest or weed control at 4.38 g/ha was 15%. In addition, the pest or weed control at 8.75 g/ha with kochia (KCHSC) (compound 8.75 g/ha, CQC-m 0) worked out at 62%. In the series on kochia (KCHSC) (compound 17.5 g/ha, CQC-m 0), the pest or weed control at 17.5 g/ha worked out at 82%. The pest or weed control at 35 g/ha with kochia (KCHSC) (compound 35 g/ha, CQC-m 0) turned out to be 95%. Further, the pest or weed control at 70 g/ha in the series with kochia (KCHSC) (compound 70 g/ha, CQC-m 0) was 95%.

As to `Nc1c(F)c(-c2ccc3scnc3c2)nc(C(=O)O)c1Cl` [compound 17], the “% visual injury, Ob” value is given as 0% with spring wheat (TRZAS) (4.375 g/ha, applied alone); 15% in the series with spring wheat (TRZAS) (8.75 g/ha, applied alone); 30% in the series with spring wheat (TRZAS) (17.5 g/ha, applied alone); 40% in the series with spring wheat (TRZAS) (35 g/ha, applied alone); 45% with spring wheat (TRZAS) (70 g/ha, applied alone). In addition, the plant injury at 4.375 g/ha in the series with winter rape (BRSNW) (4.375 g/ha, applied alone) stood at 60%. The plant injury at 8.75 g/ha in the series with winter rape (BRSNW) (8.75 g/ha, applied alone) amounted to 90%. Also, the plant injury at 17.5 g/ha in the series with winter rape (BRSNW) (17.5 g/ha, applied alone) was determined as 95%. Besides, the plant injury at 35 g/ha in the series with winter rape (BRSNW) (35 g/ha, applied alone) is 95%. Also, in the series on winter rape (BRSNW) (70 g/ha, applied alone), the plant injury at 70 g/ha amounted to 97%. The pest or weed control at 4.375 g/ha with kochia (KCHSC) (applied alone) is 85%. In addition, in the series with kochia (KCHSC) (8.75 g/ha, applied alone), the pest or weed control at 8.75 g/ha was determined as 90%. The pest or weed control at 17.5 g/ha stood at 95% with kochia (KCHSC) (17.5 g/ha, applied alone) and 100% in the series on pigweed (AMARE) (17.5 g/ha). The pest or weed control at 35 g/ha in the series with kochia (KCHSC) (35 g/ha, applied alone) was determined as 100%; in the series with pigweed (AMARE) (35 g/ha), 100%. Further, the pest or weed control at 70 g/ha with kochia (KCHSC) (70 g/ha, applied alone) is 100%.

Turning to `Nc1c(F)c(-c2ccc3ccoc3c2)nc(C(=O)O)c1Cl` [compound 20], the “% visual injury, Ob” value with spring wheat (TRZAS) (4.375 g/ha, applied alone) is recorded as 0%; with spring wheat (TRZAS) (8.75 g/ha, applied alone) it was 0%; in the series on spring wheat (TRZAS) (17.5 g/ha, applied alone), 0%; with spring wheat (TRZAS) (35 g/ha, applied alone) it was 10%; in the series with spring wheat (TRZAS) (70 g/ha, applied alone), 20%; with Russian thistle (SASKR) (4.375 g/ha, applied alone), 20%. Besides, the “% visual injury, Ob” value came out at 40% with Russian thistle (SASKR) (8.75 g/ha, applied alone); 60% with Russian thistle (SASKR) (17.5 g/ha, applied alone); 80% in the series on Russian thistle (SASKR) (35 g/ha, applied alone); 80% in the series on Russian thistle (SASKR) (70 g/ha, applied alone). Besides, in the series on kochia (KCHSC) (applied alone), the pest or weed control at 4.375 g/ha was 70%. The pest or weed control at 8.75 g/ha in the series with kochia (KCHSC) (8.75 g/ha, applied alone) amounted to 80%. In the series on kochia (KCHSC) (17.5 g/ha, applied alone), the pest or weed control at 17.5 g/ha was 85%. Further, the pest or weed control at 35 g/ha with kochia (KCHSC) (35 g/ha, applied alone) amounted to 90%. For the same compound, in the series on kochia (KCHSC) (70 g/ha, applied alone), the pest or weed control at 70 g/ha worked out at 95%.

(Values after patent US9763445B2, “Safened herbicidal compositions comprising a pyridine carboxylic acid herbicide” (Dow AgroSciences, LLC, priority 2014, dated 2017).)
